Entries after “also recorded” stand apart in the source; their conditions may differ.
Key:
[1] = test system: P-388 mouse leukemia cells; experiment: P-388 mouse leukemia cell culture cytotoxicity assay; type: cell-based; details: for IC50: Mus musculus, P388, P-388 leukemia cells in culture, read-out: ED50 (inhibitory concentration, cytotoxicity); for cytotoxicity (in words) / cytotoxicity relative to the corresponding non-aza analogs 9a and 10a (in words): P-388 mouse leukemia cell culture
Text: *Assay Technique: R. G. Almquist and R. Vince, J. Med. Chem., 16, 1396

[2] = test system: HSV-1 (E-377); experiment: cytopathogenic effects (CPE)-inhibition procedure, HSV-1, Vero cells; details: for VR (virus rating), HSV-1 (E-377): HSV-1 strain E-377, Vero cell monolayers, VR ≥ 1.0 = definite activity, 0.5-0.9 marginal to moderate, < 0.5 usually no significant activity; for antiviral activity against HSV-1 (in words): Table II data
Text: (§1) The analogs were evalulated by a cytopathogenic effects (CPE)-inhibition procedure. The host cell culture systems employed were pre-grown Vero cell monolayers.
(§2) *VR = virus rating: A measurement of selective antiviral activity which
(§3) takes into account the degree of inhibition of virusinduced cytopathogeni
(§4) effects (CPE) and the degree of cytotoxicity produced by the test
(§5) compound, determined by a modification of the method of Ehrlich et al.
(§6) definite (+) antiviral activity, a VR of 0.5-0.9 indicates marginal to
(§7) moderate (+) antiviral activity, and a VR < 0.5 usually indicates no (-)
significant antiviral activity.

[3] = test system: HSV-2 (MS); experiment: cytopathogenic effects (CPE)-inhibition procedure, HSV-2, Vero cells; details: for VR (virus rating), HSV-2 (MS): HSV-2 strain MS, Vero cell monolayers, VR ≥ 1.0 = definite activity, 0.5-0.9 marginal to moderate, < 0.5 usually no significant activity; for antiviral activity against HSV-2 (in words): Table II data
Text: as §1, §2, §3, §4, §5, §6, §7
significant antiviral activity.

[4] = test system: influenza virus; experiment: activity against an influenza virus; type: cell-based
[5] = test system: HSV-1; details: prior literature; cited from earlier work
[6] = test system: HSV-2; details: prior literature; cited from earlier work

| Structure (SMILES) | IC50 [1] | VR (virus rating), HSV-1 (E-377) [2] | VR (virus rating), HSV-2 (MS) [3] | cytotoxicity (in words) [1] | antiviral activity against HSV-1 (in words) [2] | other results |
| --- | --- | --- | --- | --- | --- | --- |
| Nc1nc(Cl)c2nnn([C@@H]3C[C@H](CO)[C@H](O)[C@H]3O)c2n1 (relative stereo) [Compound 11, (d1)-(1 α,2 β,3 α,5 α)-3-(5-Amino-7-Chloro-3H-1,2,3-triazalo [4,5-d]pyrimidin-3-yl)-5-(hydroxymethyl)-1,2-cyclopentanediol] | 50 µM | – | – | – | – | – |
| Nc1ncnc2c1ncn2[C@@H]1O[C@H](CO)[C@@H](O)[C@@H]1O.O [Ara-A, 9-β-D-arabinofuranosyladenine monohydrate, reference compound] | – | 1.7 | 1.6 | – | – | – |
| Nc1nc2c(nnn2[C@@H]2C[C@H](CO)[C@H](O)[C@H]2O)c(=O)[nH]1 (relative stereo) [Compound 13a, (d1)-5-Amino-3,6-dihydro-3-[(1 α,2 β,3 α,5 α)-2,3-dihydroxy-4-(hydroxymethyl)cyclopentyl]-7H-1,2,3-triazalo[4,5-d]pyrimidin-7-one] | 1.6 µM | 2.4 | 1.3 | inhibition at the lowest concentration; also recorded: significant cytotoxicities | substantial antiviral activity | cytotoxicity relative to the corresponding non-aza analogs 9a and 10a (in words) [1]: more active; activity against an influenza virus (in words) [4]: significant activity; antiviral activity against HSV-2 (in words) [3]: active |
| COc1nc(N)nc2c1nnn2[C@@H]1C[C@H](CO)[C@H](O)[C@H]1O (relative stereo) [Compound 12, (d1)-(1 α,2 β,3 α,5 α)-3-(5-Amino-7-methoxy-3H-1,2,3-triazalo [4,5-d]pyrimidin-3-yl)-5-(hydroxymethyl)-1,2-cyclopentanediol] | 63 µM | – | – | – | – | – |
| Nc1nc2c(ncn2[C@@H]2C[C@H](CO)[C@H](O)[C@H]2O)c(=O)[nH]1 (relative stereo) [Compound 9a, (d1)-2-Amino-1,9-dihydro-9-[(1 α,2 β,3 α,4 α)-2,3-dihydroxy-4-(hydroxymethyl)cyclopentyl]-6H-purin-6-one] | 8.9 µM | 5.6 | 3.9 | significant cytotoxicities | substantial antiviral activity | profile of activity in the antiviral assay (in words) ([2]; comparison among analogs of Table II): best profile of activity; antiviral activity against HSV-2 (in words) [3]: active |
| Nc1nc(Cl)c2ncn([C@@H]3C[C@H](CO)[C@H](O)[C@H]3O)c2n1 (relative stereo) [Compound 8, (d1)-(1 α, 2 β, 3 α, 5 α)-3-(2-Amino-6-chloro-9H-purin-9-yl)-5-(hydroxymethyl)-1,2-cyclopentanediol] | 220 µM | – | – | – | – | – |
| Nc1nc(N)c2ncn([C@@H]3C[C@H](CO)[C@@H](O)[C@@H]3O)c2n1 (relative stereo) | – | – | – | – | – | activity against HSV-1 (in words) [5]: exhibited activity; activity against HSV-2 (in words) [6]: inactive |
| Nc1nc(N)c2nnn([C@@H]3C[C@H](CO)[C@H](O)[C@H]3O)c2n1 (relative stereo) [Compound 14a, (d1)-(1 α,2 β,3 α,5 α)-3-(5,7-Diamino-3H-1,2,3-triazalo[4,5-d]pyrimidin-3-yl)-5-(hydroxymethyl)-1,2-cyclopentanediol] | 5.3 µM | 2.0 | – | significant cytotoxicities | substantial antiviral activity | cytotoxicity relative to the corresponding non-aza analogs 9a and 10a (in words) [1]: more active |
| Nc1nc(N)c2ncn([C@@H]3C[C@H](CO)[C@H](O)[C@H]3O)c2n1 (relative stereo) [Compound 10a] | 39 µM | 2.7 | – | – | substantial antiviral activity | – |

Source: patent publication US4742064A, “Antiviral carbocyclic analogs of xylofuranosylpurines” (Regents of the University of Minnesota, priority 1985, dated 1988)
